Earlier results, collected in US12005094B2, “Inhibitor of inflammatory conditions” (Compton Developments Ltd., priority 2009, dated 2024).

Legend:
EAE = settings: Clomipramine vs vehicle control, divergent from day 10
[1] = tested on: antigen-induced arthritis; settings: oral administration
ear edema = settings: topical
[2] = tested on: skin edema and hyperplasia; settings: topical administration

Row | Compound | onset of disease symptoms (average EAE scores) (EAE) | reduction in paw swelling [1] | PGE2 (ear edema) | ear edema (ear edema) | nitrite release (ear edema) | effect on lipoxygenase products (lipoxygenase products) | skin edema and hyperplasia [2]
1 | CN(C)CCCN1c2ccccc2CCc2ccc(Cl)cc21 [Clomipramine] | delayed |  |  |  |  |  | 
2 | C=C(C)[C@@H]1CC[C@]2(C)CC[C@]3(C)[C@H](CC[C@@H]4[C@@]5(C)CC[C@H](O)C(C)(C)[C@@H]5CC[C@]43C)[C@@H]12 [Lupeol, lupeol] |  | 39% | significant reduction in PGE2 | suppressed ear edema | weaker inhibition of nitrite release | no effect on lipoxygenase products | significantly inhibited skin edema and hyperplasia
